From patent US20140148484A1, “PYRAZOLE COMPOUNDS FOR TREATING HAIRLOSS” (Boehringer Ingelheim International GmbH, priority 2012, published 2014)

Biological target: T1, human CRTH2 receptor (Homo sapiens, UniProt Q9Y5Y4)
T1 construct: host or cells: CHO-K1 (CHO-K1-hCRTH2 cells); membranes prepared in house from the purchased cell line
T1 sequence (Q9Y5Y4 1-395): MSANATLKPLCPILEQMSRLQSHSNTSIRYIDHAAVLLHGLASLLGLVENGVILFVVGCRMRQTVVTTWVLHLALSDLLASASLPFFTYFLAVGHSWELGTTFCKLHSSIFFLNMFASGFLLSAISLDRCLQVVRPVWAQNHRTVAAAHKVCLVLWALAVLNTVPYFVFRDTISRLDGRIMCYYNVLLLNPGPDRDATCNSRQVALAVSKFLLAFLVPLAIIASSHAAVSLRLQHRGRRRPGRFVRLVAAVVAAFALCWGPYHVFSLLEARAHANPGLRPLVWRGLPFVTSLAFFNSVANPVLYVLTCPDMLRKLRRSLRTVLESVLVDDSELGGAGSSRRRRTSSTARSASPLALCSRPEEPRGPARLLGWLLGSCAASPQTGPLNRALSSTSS
Test: Human CRTH2 receptor membrane radioligand binding assay (SPA, [3H]-PGD2)
Conditions: displacement of [3H]-PGD2 (1 nM) from CHO-K1-hCRTH2 cell membranes, 3 h room temperature
Procedure: Preparation of Human CRTH2 Receptor Membranes and Radioligand Binding Assay
The binding of CRTH2 antagonists is determined using membranes prepared from Chinese hamster ovary cells (CHO-K1 cells) transfected with the human CRTH2 receptor (CHO-K1-hCRTH2 cells, Perkin Elmer, Cat No ES-561-C). To produce cell membranes the CHO-K1-hCRTH2 cells are cultured in suspension in CHO SFMII medium supplemented with 400 μg/ml G418. The cells are harvested by centrifugation at 300 g for 10 min at room temperature. The cell pellet is resuspended in Phosphate Buffer Saline (PBS) including a protease inhibitor mix (Complete, Roche) and adjusted to a concentration of 10E7 cells/ml. The CHO-K1-hCRTH2 cells are disrupted by nitrogen […] to obtain the membrane preparation. Cell debris is removed by centrifugation (500 g at 4° C., 30 min) and the supernatant is transferred into fresh tubes followed by a second centrifugation at 40000 g for 1 h at 4° C. to sediment the membranes. The membranes are suspended in SPA incubation buffer (50 mM Tris HCl, 10 mM MgCl2, 150 mM NaCl, 1 mM EDTA, pH 7.4) without bovine serum albumin, homogenized by passing through a single use needle (Terumo, 23G×1″), and stored in aliquots at −80° C.
The CRTH2 receptor binding assay is performed in a scintillation proximity assay (SPA) format with the radioligand [^3H]-PGD2 (Perkin Elmer, NET616000MC). CHO-K1-hCRTH2 cell membranes are again homogenized by passing through a single use needle (Terumo, 23G×1″) and diluted in SPA incubation buffer in suitable concentrations (0.5-10 μg protein/well). The SPA assay is set up in 96 well microtiter plates (Perkin Elmer, CatNo. 6005040) in SPA incubation buffer with a final volume of 200 μl per well and final concentration of 50 mM Tris-HCl, 10 mM MgCl2, 150 mM NaCl, 1 mM EDTA pH 7.4, 0.1% bovine serum albumin). The SPA assay mixture contains 60 μl of the membrane suspension, 80 μl of Wheat Germ Agglutinin coated PVT beads (GE Healthcare, RPNQ-0001, 0.3 mg/well), 40 μl of [3H]-PGD2 diluted in SPA buffer to a final concentration of 1 nM (50 000 dpm) and 20 μl of the test compound (dissolved in dimethylsulfoxid). The SPA assay mixture is incubated for 3 h at room temperature. Bound radioactivity is determined with a scintillation counter (Micro Beta Trilux, Wallac).
The binding of [^3H]-PGD2 to CHO-K1-hCRTH2 cell membranes is determined in the absence (total binding, Bo) and presence (non-specific binding, NSB) of unlabelled PGD2 (1 μM, Cayman Chemical, Cat No 12010) or a reference CRTH2 antagonist (10 μM CAY10471, Cayman Chemical, Cat No 10006735).
Determination of the affinity of a test compound is calculated by subtraction of the non-specific binding (NSB) from the total binding (Bo) or the binding in the presence of the test compound (B) at a given compound concentration. […] The Bo−NSB value is set to 0% inhibition.

Ki	SMILES
2.9 nM	Cc1nn(Cc2ccc(NC(=O)c3ccc(C(F)(F)F)cc3)cc2)c(C)c1CC(=O)O [Example 1.1]
16.3 nM	Cc1cc(Cl)ccc1C(=O)Nc1ccc(Cn2nc(C)c(CC(=O)O)c2C)cc1 [Example 1.2]
30.8 nM	Cc1nn(Cc2ccc(NC(=O)c3ccccc3)cc2)c(C)c1CC(=O)O [Example 1.3]
7.7 nM	Cc1ccc(C(=O)Nc2ccc(Cn3nc(C)c(CC(=O)O)c3C)cc2)cc1 [Example 1.4]
12.9 nM	COc1ccc(C(=O)Nc2ccc(Cn3nc(C)c(CC(=O)O)c3C)cc2)cc1 [Example 1.5]
3.5 nM	Cc1nn(Cc2ccc(NC(=O)c3ccc(Cl)cc3)cc2)c(C)c1CC(=O)O [Example 1.6]
2.5 nM	Cc1nn(Cc2ccc(NC(=O)c3ccc4ccccc4c3)cc2)c(C)c1CC(=O)O [Example 1.7]
2.6 nM	Cc1nn(Cc2ccc(NC(=O)c3ccc(Cl)c(Cl)c3)cc2)c(C)c1CC(=O)O [Example 1.8]
28.3 nM	Cc1nn(Cc2ccc(NC(=O)c3ccc4ccccc4n3)cc2)c(C)c1CC(=O)O [Example 1.9]
7.4 nM	Cc1nn(Cc2ccc(NC(=O)CCc3ccccc3)cc2)c(C)c1CC(=O)O [Example 1.10]
2.7 nM	Cc1cc(C(F)(F)F)ccc1C(=O)Nc1ccc(Cn2nc(C)c(CC(=O)O)c2C)cc1 [Example 1.11]
12.9 nM	Cc1ccc(C(=O)Nc2ccc(Cn3nc(C)c(CC(=O)O)c3C)cc2)c(C)c1 [Example 1.12]
4 nM	Cc1nn(Cc2ccc(NC(=O)/C=C/c3ccccc3)cc2)c(C)c1CC(=O)O [Example 1.13]
1.1 nM	Cc1nn(Cc2ccc(NC(=O)/C=C/c3ccc(Cl)cc3)cc2)c(C)c1CC(=O)O [Example 1.14]
0.2 nM	Cc1nn(Cc2ccc(NC(=O)c3ccc(C(C)(C)C)cc3)cc2)c(C)c1CC(=O)O [Example 1.15]
3.9 nM	Cc1cc(Br)ccc1C(=O)Nc1ccc(Cn2nc(C)c(CC(=O)O)c2C)cc1 [Example 1.16]
2.5 nM	Cc1cc(C(=O)Nc2ccc(Cn3nc(C)c(CC(=O)O)c3C)cc2)c(C)cc1Br [Example 1.17]
17.9 nM	Cc1nn(Cc2ccc(NC(=O)c3ccc(Cl)cc3Cl)cc2)c(C)c1CC(=O)O [Example 1.18]
16.2 nM	Cc1nn(Cc2ccc(NC(=O)c3ccc(Cl)cc3F)cc2)c(C)c1CC(=O)O [Example 1.19]
29.3 nM	Cc1ccc(C(=O)Nc2ccc(Cn3nc(C)c(CC(=O)O)c3C)cc2)c(F)c1 [Example 1.20]

Ki	SMILES
80.2 nM	Cc1ccc(C(=O)Nc2ccc(Cn3nc(C)c(CC(=O)O)c3C)cc2)c(C(F)(F)F)c1 [Example 1.21]
3320 nM	Cc1nn(Cc2ccc(NC(=O)c3ccc(C(F)(F)F)cc3F)cc2)c(C)c1CC(=O)O [Example 1.22]
5.7 nM	Cc1nn(Cc2ccc(NC(=O)c3cc4ccccc4cc3Cl)cc2)c(C)c1CC(=O)O [Example 1.23]
553 nM	Cc1cc(C)c(C(=O)Nc2ccc(Cn3nc(C)c(CC(=O)O)c3C)cc2)c(C)c1 [Example 1.24]
3.1 nM	Cc1cc2ccccc2cc1C(=O)Nc1ccc(Cn2nc(C)c(CC(=O)O)c2C)cc1 [Example 1.25]
36 nM	Cc1nn(Cc2ccc(NC(=O)c3ccc4ccccc4c3C)cc2)c(C)c1CC(=O)O [Example 1.26]
9.3 nM	Cc1nn(Cc2ccc(NC(=O)c3ccc(Br)cc3Cl)cc2)c(C)c1CC(=O)O [Example 1.27]
12.4 nM	Cc1nn(Cc2ccc(NC(=O)c3ccc(Cl)cc3Br)cc2)c(C)c1CC(=O)O [Example 1.28]
2.5 nM	Cc1nn(Cc2ccc(NC(=O)c3cccc4c3CCCC4)cc2)c(C)c1CC(=O)O [Example 1.29]
14.6 nM	Cc1nn(Cc2ccc(NC(=O)c3ccc4ccccc4c3Br)cc2)c(C)c1CC(=O)O [Example 1.30]
18.9 nM	Cc1ccc(Br)c(C(=O)Nc2ccc(Cn3nc(C)c(CC(=O)O)c3C)cc2)c1 [Example 1.31]
32.5 nM	Cc1nn(Cc2ccc(NC(=O)C(C)C)cc2)c(C)c1CC(=O)O [Example 1.32]
29.8 nM	Cc1nn(Cc2ccc(NC(=O)C3CCCCC3)cc2)c(C)c1CC(=O)O [Example 1.33]
4 nM	Cc1nn(Cc2ccc(NC(=O)C3[C@H]4C[C@@H]5C[C@@H](C[C@H]3C5)C4)cc2)c(C)c1CC(=O)O (stereo partly shown) [Example 1.34]
44.6 nM	Cc1nn(Cc2ccc(NC(=O)C3CCC3)cc2)c(C)c1CC(=O)O [Example 1.35]
0.2 nM	CCc1nn(Cc2ccc(NC(=O)c3ccc(C(F)(F)F)cc3)cc2)c(CC)c1CC(=O)O [Example 2.1]
1.1 nM	CCc1nn(Cc2ccc(NC(=O)c3ccc(Cl)cc3C)cc2)c(CC)c1CC(=O)O [Example 2.2]
3.4 nM	CCc1nn(Cc2ccc(NC(=O)c3ccccc3)cc2)c(CC)c1CC(=O)O [Example 2.3]
1.3 nM	CCc1nn(Cc2ccc(NC(=O)c3ccc(C)cc3)cc2)c(CC)c1CC(=O)O [Example 2.4]
0.75 nM	CCc1nn(Cc2ccc(NC(=O)c3ccc(Cl)cc3)cc2)c(CC)c1CC(=O)O [Example 2.5]

Ki	SMILES
0.25 nM	CCc1nn(Cc2ccc(NC(=O)c3ccc(Cl)c(Cl)c3)cc2)c(CC)c1CC(=O)O [Example 2.6]
12.9 nM	Cc1c(CC(=O)O)c(C2CCCCC2)nn1Cc1ccc(NC(=O)c2ccc(C(F)(F)F)cc2)cc1 [Example 2.7]
1.3 nM	Cc1nn(Cc2ccc(NC(=O)c3ccc4ccccc4c3)cc2)c(-c2ccccc2)c1CC(=O)O [Example 2.8]
1.8 nM	Cc1nn(Cc2ccc(NC(=O)c3ccc(C(F)(F)F)cc3)cc2)c(-c2ccccc2)c1CC(=O)O [Example 2.9]
0.8 nM	Cc1nn(Cc2ccc(NC(=O)c3ccc(Cl)c(Cl)c3)cc2)c(-c2ccccc2)c1CC(=O)O [Example 2.10]
1.2 nM	Cc1c(CC(=O)O)c(-c2ccccc2)nn1Cc1ccc(NC(=O)c2ccc(C(F)(F)F)cc2)cc1 [Example 2.11]
2.3 nM	Cc1c(CC(=O)O)c(-c2ccccc2)nn1Cc1ccc(NC(=O)c2ccc3ccccc3c2)cc1 [Example 2.12]
2.9 nM	Cc1c(CC(=O)O)c(-c2ccccc2)nn1Cc1ccc(NC(=O)c2ccc(Cl)c(Cl)c2)cc1 [Example 2.13]
0.2 nM	CCc1nn(Cc2ccc(NC(=O)c3ccc4ccccc4c3)cc2)c(CC)c1CC(=O)O [Example 2.14]
1.4 nM	CCc1nn(Cc2ccc(NC(=O)c3ccc(C)cc3C)cc2)c(CC)c1CC(=O)O [Example 2.15]
23.9 nM	CCc1nn(Cc2ccc(NC(=O)[C@H]3CC[C@@H](C(F)(F)F)CC3)cc2)c(CC)c1CC(=O)O [Example 2.16]
0.7 nM	CCc1nn(Cc2ccc(NC(=O)c3ccc(Br)cc3C)cc2)c(CC)c1CC(=O)O [Example 2.17]
2.8 nM	CCc1nn(Cc2ccc(NC(=O)C3CCCCC3)cc2)c(CC)c1CC(=O)O [Example 2.18]
5.8 nM	CCc1nn(Cc2ccc(NC(=O)c3cc(C)ccc3Br)cc2)c(CC)c1CC(=O)O [Example 2.19]
13.9 nM	CCc1nn(Cc2ccc(NC(=O)c3cccc(Cl)c3Cl)cc2)c(CC)c1CC(=O)O [Example 2.20]
0.5 nM	CCc1nn(Cc2ccc(NC(=O)c3cccc4c3CCCC4)cc2)c(CC)c1CC(=O)O [Example 2.21]
1.9 nM	CCc1nn(Cc2ccc(NC(=O)c3ccc(Br)cc3Cl)cc2)c(CC)c1CC(=O)O [Example 2.22]
6.1 nM	CCc1ccccc1C(=O)Nc1ccc(Cn2nc(CC)c(CC(=O)O)c2CC)cc1 [Example 2.23]
